# What was measured:
# [1] = target: T1, Bifunctional epoxide hydrolase 2 (Homo sapiens, UniProt P34913); experiment: Inhibition of recombinant human soluble epoxide hydrolase using PHOME as substrate assessed as 6-methoxynaphthaldehyde product formation preincubated with compound for 10 mins followed by substrate addition and measured by fluorescence based analysis
# T1 sequence (P34913 whole entry): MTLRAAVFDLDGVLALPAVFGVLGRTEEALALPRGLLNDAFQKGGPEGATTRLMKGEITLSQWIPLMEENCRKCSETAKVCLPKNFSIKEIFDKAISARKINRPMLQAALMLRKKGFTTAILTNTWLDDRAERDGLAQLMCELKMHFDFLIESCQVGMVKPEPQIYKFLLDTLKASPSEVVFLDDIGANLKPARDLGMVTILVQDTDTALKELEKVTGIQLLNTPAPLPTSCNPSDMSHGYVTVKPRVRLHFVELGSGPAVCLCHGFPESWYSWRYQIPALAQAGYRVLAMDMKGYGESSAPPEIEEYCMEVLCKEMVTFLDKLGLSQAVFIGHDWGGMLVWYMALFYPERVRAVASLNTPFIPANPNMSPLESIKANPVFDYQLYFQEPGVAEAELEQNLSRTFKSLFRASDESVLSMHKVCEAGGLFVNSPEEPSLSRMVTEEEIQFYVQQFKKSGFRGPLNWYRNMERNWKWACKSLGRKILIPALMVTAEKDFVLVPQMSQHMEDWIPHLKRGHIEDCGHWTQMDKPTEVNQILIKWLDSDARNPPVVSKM
# [2] = target: T2, Bifunctional epoxide hydrolase 2 (Mus musculus, UniProt P34914); experiment: Inhibition of recombinant mouse soluble epoxide hydrolase using PHOME as substrate assessed as 6-methoxynaphthaldehyde product formation preincubated with compound for 10 mins followed by substrate addition and measured by fluorescence based analysis
# T2 sequence (P34914 whole entry): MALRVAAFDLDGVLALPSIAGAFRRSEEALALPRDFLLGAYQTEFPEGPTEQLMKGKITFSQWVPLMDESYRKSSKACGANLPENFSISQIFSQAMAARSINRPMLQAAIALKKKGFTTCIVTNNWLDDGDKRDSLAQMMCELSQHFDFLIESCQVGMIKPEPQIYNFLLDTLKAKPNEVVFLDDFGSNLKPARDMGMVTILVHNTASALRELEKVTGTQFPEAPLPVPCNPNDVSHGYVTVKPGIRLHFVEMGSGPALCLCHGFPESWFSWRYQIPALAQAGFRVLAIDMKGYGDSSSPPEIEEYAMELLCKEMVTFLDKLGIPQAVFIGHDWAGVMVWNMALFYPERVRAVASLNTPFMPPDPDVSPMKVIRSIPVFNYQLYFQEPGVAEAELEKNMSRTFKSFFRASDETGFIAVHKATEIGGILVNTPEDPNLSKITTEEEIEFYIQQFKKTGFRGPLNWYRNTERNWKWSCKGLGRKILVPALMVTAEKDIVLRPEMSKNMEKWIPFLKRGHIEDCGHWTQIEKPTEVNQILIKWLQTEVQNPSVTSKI
# [3] = Microsomal stability in Sprague-Dawley rat liver microsomes assessed as mean compound concentration measured after 30 mins in the presence of NADPH-generating system by HPLC analysis (Rvb= 100 ug/ml); type: ADME, Microsome; conditions: 0.5 h
# Mus musculus [4] = experiment: (§1) Anti-inflammatory activity in L-arginine-induced acute pancreatitis kunming mouse model assessed as reversal of L-arginine induced pancreatic injury by measuring total score at 3 mg/kg, ip pre-treated with L-arginine for 14 hrs followed by compound treatment and measured after 10 hrs by histologic scoring analysis (reference value: 6.25 +/- 0.96); type: functional
# [5] = Tmax in Sprague-Dawley rat at 10 mg/kg, iv administered as single dose and measured upto 8 hrs by HPLC analysis; type: ADME, organism-based; conditions: in vivo
# [6] = Microsomal stability in Sprague-Dawley rat liver microsomes assessed as mean compound concentration measured after 60 mins in the presence of NADPH-generating system by HPLC analysis (Rvb= 100 ug/ml); type: ADME, Microsome; conditions: 1 h
# [7] = Microsomal stability in Sprague-Dawley rat liver microsomes assessed as mean compound concentration measured after 10 mins in the presence of NADPH-generating system by HPLC analysis (Rvb= 100 ug/ml); type: ADME, Microsome
# [8] = AUC (0 to infinity) in Sprague-Dawley rat at 10 mg/kg, iv administered as single dose and measured upto 8 hrs by HPLC analysis; type: ADME, organism-based; set-up: dose 10 mg/kg, time < 8 hrs, route iv; conditions: in vivo
# [9] = Microsomal stability in human liver microsomes assessed as mean compound concentration measured after 30 mins in the presence of NADPH-generating system by HPLC analysis (Rvb= 100 ug/ml); type: ADME, Microsome; conditions: 0.5 h
# [10] = Half-life in Sprague-Dawley rat at 50 mg/kg, po administered as single dose and measured upto 8 hrs by HPLC analysis; type: ADME, organism-based; conditions: in vivo
# [11] = AUC (0 to 8 hrs) in Sprague-Dawley rat at 10 mg/kg, iv administered as single dose and measured upto 8 hrs by HPLC analysis; type: ADME, organism-based; set-up: time < 8 hrs, dose 10 mg/kg, route iv; conditions: in vivo
# [12] = Metabolic stability in human liver microsomes assessed as half-life measured upto 60 mins in the presence of NADPH generating system by HPLC analysis; type: ADME, Microsome; conditions: 1 h
# [13] = Toxicity in LPS-induced C57BL/6 sepsis mouse model assessed as survival rate at 5 mg/kg, ip administered at 4 and 12 hrs post LPS-induction and measured after 28 hrs relative to control; type: organism-based; conditions: in vivo
# [14] = Cmax in Sprague-Dawley rat at 10 mg/kg, iv administered as single dose and measured upto 8 hrs by HPLC analysis; type: ADME, organism-based; set-up: time < 8 hrs, dose 10 mg/kg, route iv; conditions: in vivo
# [15] = Oral bioavailability in Sprague-Dawley rat at 50 mg/kg administered as single dose and measured upto 8 hrs by HPLC analysis; type: ADME, organism-based; conditions: in vivo
# [16] = Protein binding in Sprague-Dawley rat plasma by equilibrium dialysis; type: ADME, cell-free
# [17] = Toxicity in mouse assessed as tolerance by measuring adverse events at 200 mg/kg, po administered for 7 days; type: organism-based; conditions: in vivo, 168 h, time 7 day
# [18] = Clearance in Sprague-Dawley rat at 10 mg/kg, iv administered as single dose and measured upto 8 hrs by HPLC analysis; type: ADME, organism-based; conditions: in vivo
# [19] = Metabolic stability in Sprague-Dawley rat liver microsomes assessed as half-life measured upto 60 mins in the presence of NADPH generating system by HPLC analysis; type: ADME, Microsome; conditions: 1 h
# [20] = AUC (0 to infinity) in Sprague-Dawley rat at 50 mg/kg, po administered as single dose and measured upto 8 hrs by HPLC analysis; type: ADME, organism-based; set-up: time < 8 hrs, dose 50 mg/kg, route po; conditions: in vivo
# [21] = Apparent volume of distribution in Sprague-Dawley rat at 50 mg/kg, po administered as single dose and measured upto 8 hrs by HPLC analysis; type: ADME, organism-based; conditions: in vivo
# [22] = Tmax in Sprague-Dawley rat at 50 mg/kg, po administered as single dose and measured upto 8 hrs by HPLC analysis; type: ADME, organism-based; conditions: in vivo
# [23] = AUC (0 to 8 hrs) in Sprague-Dawley rat at 50 mg/kg, po administered as single dose and measured upto 8 hrs by HPLC analysis; type: ADME, organism-based; set-up: dose 50 mg/kg, time < 8 hrs, route po; conditions: in vivo
# [24] = Microsomal stability in human liver microsomes assessed as mean compound concentration measured after 10 mins in the presence of NADPH-generating system by HPLC analysis (Rvb= 100 ug/ml); type: ADME, Microsome
# [25] = Cmax in Sprague-Dawley rat at 50 mg/kg, po administered as single dose and measured upto 8 hrs by HPLC analysis; type: ADME, organism-based; set-up: time < 8 hrs, dose 50 mg/kg, route po; conditions: in vivo
# [26] = Half-life in Sprague-Dawley rat at 10 mg/kg, iv administered as single dose and measured upto 8 hrs by HPLC analysis; type: ADME, organism-based; conditions: in vivo
# [27] = Microsomal stability in human liver microsomes assessed as mean compound concentration measured after 60 mins in the presence of NADPH-generating system by HPLC analysis (Rvb= 100 ug/ml); type: ADME, Microsome; conditions: 1 h
# [28] = Clearance in Sprague-Dawley rat at 50 mg/kg, po administered as single dose and measured upto 8 hrs by HPLC analysis; type: ADME, organism-based; conditions: in vivo
# [29] = Toxicity in LPS-induced C57BL/6 sepsis mouse model assessed as survival rate at 5 mg/kg, ip administered at 4 and 12 hrs post LPS-induction and measured after 35 hrs relative to control; type: organism-based; conditions: in vivo
# [30] = Toxicity in mouse assessed as effect on body weight at 200 mg/kg, po administered for 7 days; type: organism-based; conditions: in vivo, 168 h, time 7 day
# [31] = Apparent volume of distribution in Sprague-Dawley rat at 10 mg/kg, iv administered as single dose and measured upto 8 hrs by HPLC analysis; type: ADME, organism-based; conditions: in vivo
# Mus musculus [32] = experiment: as §1, with “8” for “3”; type: functional
smiles,measurement,setting,value
C[C@]12C[C@@H]3C[C@](C)(C1)C[C@@](NC(=O)Nc1ccc(CN4CCCN(C(=O)CC5CCN(CCO)CC5)CC4)cc1F)(C3)C2,IC50,[1],4.69 nM
same,IC50,[2],0.61 nM
CCN(CC)CCN1CCC(CC(=O)N2CCCN(Cc3ccc(NC(=O)N[C@@]45C[C@@H]6C[C@@](C)(C[C@@](C)(C6)C4)C5)c(F)c3)CC2)CC1,IC50,[1],2.1 nM
same,IC50,[2],1.37 nM
COC(=O)N1CCC(CC(=O)N2CCCN(Cc3ccc(NC(=O)N[C@@]45C[C@@H]6C[C@@](C)(C[C@@](C)(C6)C4)C5)c(F)c3)CC2)CC1,IC50,[1],1.1 nM
same,IC50,[2],0.41 nM
CN(C)CCN1CCC(CC(=O)N2CCCN(Cc3ccc(NC(=O)N[C@@]45C[C@@H]6C[C@@](C)(C[C@@](C)(C6)C4)C5)c(F)c3)CC2)CC1,IC50,[1],2.59 nM
same,IC50,[2],0.67 nM
CCC(=O)N1CCCN(C(=O)C2CCCN(Cc3ccc(NC(=O)N[C@@]45C[C@@H]6C[C@@](C)(C[C@@](C)(C6)C4)C5)c(F)c3)C2)CC1 (some centres not stated),Stability,[3],66.63 µg/mL
same,Activity,Mus musculus [4],4.25
same,Tmax,[5],1.8 min
same,Stability,[6],62.01 µg/mL
same,Stability,[7],75.04 µg/mL
same,AUC,[8],11.47 nM·h
same,Stability,[9],74.76 µg/mL
same,t1/2,[10],5.55 h
same,AUC,[11],6.13 nM·h
same,t1/2,[12],3.7 h
same,Activity,[13],37.5%
same,Cmax,[14],3.77 nM
same,F,[15],20.85%
same,PPB,[16],72.57%
same,Activity,[17],Non-Toxic
same,CL,[18],4.83 mL/min/kg
same,IC50,[1],0.05 nM
same,t1/2,[19],3.15 h
same,AUC,[20],10.15 nM·h
same,Vz,[21],13.12 L/kg
same,Tmax,[22],0.25 h
same,AUC,[23],6.39 nM·h
same,IC50,[2],0.14 nM
same,Stability,[24],81.12 µg/mL
same,Cmax,[25],2.92 nM
same,t1/2,[26],5.72 h
same,Stability,[27],68.78 µg/mL
same,CL,[28],28.3 mL/min/kg
same,Activity,[29],12.5%
same,Activity,[30],Non-Toxic
same,Vz,[31],2.39 L/kg
same,Activity,Mus musculus [32],3.5
C[C@]12C[C@@H]3C[C@](C)(C1)C[C@@](NC(=O)Nc1ccc(CN4CCCN(C(=O)CC5CCN(CC(O)CO)CC5)CC4)cc1F)(C3)C2 (some centres not stated),IC50,[1],58.1 nM
same,IC50,[2],1.25 nM

# — ChEMBL document CHEMBL5380778, “Structure-Directed Discovery of Potent Soluble Epoxide Hydrolase Inhibitors for the Treatment of Inflammatory Diseases” (J Med Chem, 2023)
